Results taken from BindingDB's records for patent US10780090 (Millennium Pharmaceuticals, Inc., 2020).

Biological target: T1, SUMO-activating enzyme subunit 2 (Human, UniProt Q9UBT2)
T1 sequence (Q9UBT2 whole entry): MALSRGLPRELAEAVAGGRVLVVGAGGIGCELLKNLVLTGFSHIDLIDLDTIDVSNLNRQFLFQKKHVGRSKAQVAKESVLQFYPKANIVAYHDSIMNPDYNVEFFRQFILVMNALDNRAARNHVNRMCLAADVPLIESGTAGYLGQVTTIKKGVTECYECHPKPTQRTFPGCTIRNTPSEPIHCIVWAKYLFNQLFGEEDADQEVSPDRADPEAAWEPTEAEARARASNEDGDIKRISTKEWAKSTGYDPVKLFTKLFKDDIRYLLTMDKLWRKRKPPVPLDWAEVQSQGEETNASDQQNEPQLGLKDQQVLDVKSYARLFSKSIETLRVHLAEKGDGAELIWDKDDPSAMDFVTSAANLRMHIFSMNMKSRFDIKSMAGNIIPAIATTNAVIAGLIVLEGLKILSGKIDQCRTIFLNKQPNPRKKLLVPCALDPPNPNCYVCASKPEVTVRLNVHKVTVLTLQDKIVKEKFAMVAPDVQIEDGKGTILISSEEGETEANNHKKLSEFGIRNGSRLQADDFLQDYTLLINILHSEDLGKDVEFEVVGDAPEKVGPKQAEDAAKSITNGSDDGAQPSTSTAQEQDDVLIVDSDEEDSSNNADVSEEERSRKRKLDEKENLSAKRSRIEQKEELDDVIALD
Assay: Enzyme Assay
Protocol: After incubation for 2 hours at 24° C., quantification of FRET is performed on the Pherostar (BMG Labtech). Percentage inhibition values at a single concentration or enzyme inhibition (IC50) values are determined from those curves. One skilled in the art will appreciate that the values generated either as percentage inhibition at a single concentration or IC50 values are subject to experimental variation.

| Structure (SMILES) | IC50 [nM] |
| --- | --- |
| NS(=O)(=O)OC[C@H]1C[C@@H](Nc2ncncc2C(=O)c2cc(Cc3cccc(Br)n3)c(Cl)s2)C[C@@H]1O [US10780090, Compound I-46] | < 10 |
| NS(=O)(=O)OC[C@H]1C[C@@H](Nc2ncncc2C(=O)c2cc(Cc3cccc(Br)c3)c(Cl)s2)C[C@@H]1O [US10780090, Compound I-112] | < 10 |
| Cc1sc(C(=O)c2cncnc2N[C@@H]2C[C@H](COS(N)(=O)=O)[C@@H](O)C2)cc1[C@@H]1OCC(F)(F)c2ccc(Cl)cc21 [US10780090, Compound I-288] | < 10 |
| CN1Cc2ccccc2[C@@H]1c1cc(C(=O)c2cncnc2N[C@@H]2C[C@H](COS(N)(=O)=O)[C@@H](O)C2)sc1Cl [US10780090, Compound I-304] | < 10 |
| CN1Cc2ccccc2[C@@H]1c1csc(C(=O)c2cncnc2N[C@@H]2C[C@H](COS(N)(=O)=O)[C@@H](O)C2)c1 [US10780090, Compound I-308] | < 10 |
| Cc1sc(C(=O)c2cncnc2N[C@@H]2C[C@H](COS(N)(=O)=O)[C@@H](O)C2)cc1[C@@H]1OCCc2ccc(C#N)cc21 [US10780090, Compound I-313] | < 10 |
| C[C@@]1(c2csc(C(=O)c3cncnc3N[C@@H]3C[C@H](COS(N)(=O)=O)[C@@H](O)C3)c2)NCCc2ccccc21 [US10780090, Compound I-318] | < 10 |
| CC(C)(C)OC(=O)N1CCc2ccc(Cl)cc2[C@@H]1c1cc(C(=O)c2cncnc2N[C@@H]2C[C@H](COS(N)(=O)=O)[C@@H](O)C2)sc1Cl [US10780090, Compound I-336] | 100 to 1000 |

More lines, now with the values ahead:

| IC50 [nM] | Structure (SMILES) |
| --- | --- |
| < 10 | Cc1sc(C(=O)c2cncnc2N[C@@H]2C[C@H](COS(N)(=O)=O)[C@@H](O)C2)cc1[S@+]([O-])c1cccc(C(F)(F)F)c1 [US10780090, Compound I-69] |
| 100 to 1000 | Cc1sc(C(=O)c2cncnc2N[C@@H]2C[C@H](COS(N)(=O)=O)[C@@H](O)C2)cc1[C@@H]1OCC(F)(F)c2ncccc21 [US10780090, Compound I-331] |
| 100 to 1000 | CC(C)(C)OC(=O)N1CCc2ccc(Cl)cc2[C@@H]1c1csc(C(=O)c2cncnc2N[C@@H]2C[C@H](COS(N)(=O)=O)[C@@H](O)C2)c1 [US10780090, Compound I-334] |
| < 10 | CN(c1ncncc1C(=O)c1cc([C@@H]2OCCc3ccc(Cl)cc32)c(CO)s1)[C@@H]1C[C@H](COS(N)(=O)=O)[C@@H](O)C1 [US10780090, Compound I-366] |
